Test results reported in ChEMBL document CHEMBL3137667, “[Drug-induced liver injury; fourteenth updated edition of the bibliographic database of liver injuries and related drugs]” (Gastroenterol Clin Biol, 2004).

Key:
[1] = human
[2] = human; remark: listed apart in the source
[3] = human, serum
[4] = human; remark: listed apart in the source
[5] = human; remark: listed apart in the source
[6] = human; remark: listed apart in the source
[7] = human, serum; remark: listed apart in the source
[8] = human; remark: listed apart in the source
[9] = human; remark: listed apart in the source
[10] = human; remark: listed apart in the source
[11] = human; remark: listed apart in the source
[12] = human, serum, 4383 h
[13] = Highest frequency of acute liver toxicity observed during clinical trials, expressed as a percentage. [column '% AIGUE' in source]; settings: human
[14] = human; remark: listed apart in the source
[15] = Highest frequency of moderate liver toxicity observed during clinical trials, expressed as a percentage. [column '% BIOL' in source]; settings: human
[16] = Comments (NB not yet translated). [column 'COMMENTAIRES' in source]; settings: human
[17] = Presence of at least one case with successful reintroduction. [column 'REINT' in source]; settings: human
[18] = Proposed mechanism(s) of liver damage. [column 'MEC' in source]; settings: human
[19] = Times to onset, minimal and maximal, observed in the indexed observations. [column 'DELAI' in source]; settings: human
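For Hepatotoxicity (association with vascular disease) in this document: count of indexed literature references reporting vascular liver injury in humans, e.g. peliosis hepatitis, hepatic veno-occlusive disease or Budd-Chiari syndrome.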
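For Hepatotoxicity (benign tumour) in this document: value is a count of indexed literature references citing a benign tumour confirmed by histopathology.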
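For Hepatotoxicity (choleostasis) in this document: human cholestatic liver injury, shown by histopathology or by peak ALT or AST elevation over alkaline phosphatase ratio below 2, value counts indexed literature reports.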
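For Hepatotoxicity (chronic liver disease) in this document: chronic liver injury confirmed by histopathology or persistently raised serum aminotransferase activity beyond 6 months, value given as the count of indexed literature references.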
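For Hepatotoxicity (cirrhosis) in this document: value is a count of indexed literature references reporting cirrhosis confirmed by histopathology.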
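For Hepatotoxicity (cytolytic) in this document: human cytolytic liver injury, shown by histopathology or by a ratio above 5 of peak ALT or AST elevation to alkaline phosphatase elevation, value counts indexed references.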
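For Hepatotoxicity (granulomatous hepatitis) in this document: value is a count of indexed literature references reporting granulomatous liver disease confirmed by histopathology.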
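For Hepatotoxicity (malignant tumour) in this document: malignant tumour confirmed by histopathology, value gives the count of indexed literature references reporting it.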
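For Hepatotoxicity (severe hepatitis) in this document: human clinical data: severe hepatitis, meaning potentially life-threatening liver failure or clinically observed cases, the value counts how many indexed literature references report it.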
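For Hepatotoxicity (steatosis) in this document: steatosis confirmed by histopathology, value is the count of indexed references.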

Structure (SMILES): Cc1onc(-c2c(F)cccc2Cl)c1C(=O)N[C@@H]1C(=O)N2[C@@H]1SC(C)(C)[C@@H]2C(=O)O [FLOXACILLIN]
- Hepatotoxicity (choleostasis) [1]: 20
- Hepatotoxicity (benign tumour) [2]: 0
- Hepatotoxicity (acute) [3]: 26
- Hepatotoxicity (cirrhosis) [4]: 2
- Hepatotoxicity (animal toxicity known) [5]: yes
- Hepatotoxicity (steatosis) [6]: 2
- Hepatotoxicity (moderate) [7]: 4
- Hepatotoxicity (association with vascular disease) [8]: 0
- Hepatotoxicity (granulomatous hepatitis) [9]: 1
- Hepatotoxicity (malignant tumour) [10]: 0
- Hepatotoxicity (severe hepatitis) [11]: 2
- Hepatotoxicity (chronic liver disease) [12]: 1
- Hepatotoxicity (acute) [13]: 0%
- Hepatotoxicity (cytolytic) [14]: 2
- Hepatotoxicity (moderate) [15]: 3.4%
- Hepatotoxicity (comment) [16]: CHOLESTASE_PROLONGEE CHOLANGITE #CBP
- Hepatotoxicity (successful reintroduction) [17]: yes
- Hepatotoxicity (mechanism) [18]: Allergic
- Hepatotoxicity (time to onset) [19]: 12 hours - 2 months

Structure (SMILES): Cc1ccc(S(=O)(=O)NC(=O)NC2CCCCC2)cc1N [METAHEXAMIDE]
- Hepatotoxicity (choleostasis) [1]: 4
- Hepatotoxicity (benign tumour) [2]: 0
- Hepatotoxicity (acute) [3]: 11
- Hepatotoxicity (cirrhosis) [4]: 1
- Hepatotoxicity (animal toxicity known) [5]: yes
- Hepatotoxicity (steatosis) [6]: 0
- Hepatotoxicity (moderate) [7]: 6
- Hepatotoxicity (association with vascular disease) [8]: 0
- Hepatotoxicity (granulomatous hepatitis) [9]: 0
- Hepatotoxicity (malignant tumour) [10]: 0
- Hepatotoxicity (severe hepatitis) [11]: 2
- Hepatotoxicity (chronic liver disease) [12]: 0
- Hepatotoxicity (acute) [13]: 4.4%
- Hepatotoxicity (cytolytic) [14]: 7
- Hepatotoxicity (moderate) [15]: 24%
- Hepatotoxicity (comment) [16]: PERICHOLANGITE RC/CARBUTAMIDE
- Hepatotoxicity (successful reintroduction) [17]: yes
- Hepatotoxicity (mechanism) [18]: Dose-dependant
- Hepatotoxicity (time to onset) [19]: 4 days - 1 week

Structure (SMILES): FC(F)OC(Cl)C(F)(F)F (stereo unspecified) [ISOFLURANE]
- Hepatotoxicity (choleostasis) [1]: 1
- Hepatotoxicity (benign tumour) [2]: 0
- Hepatotoxicity (acute) [3]: 25
- Hepatotoxicity (cirrhosis) [4]: 0
- Hepatotoxicity (animal toxicity known) [5]: yes
- Hepatotoxicity (steatosis) [6]: 2
- Hepatotoxicity (moderate) [7]: 5
- Hepatotoxicity (association with vascular disease) [8]: 0
- Hepatotoxicity (granulomatous hepatitis) [9]: 0
- Hepatotoxicity (malignant tumour) [10]: 0
- Hepatotoxicity (severe hepatitis) [11]: 11
- Hepatotoxicity (chronic liver disease) [12]: 0
- Hepatotoxicity (acute) [13]: 0%
- Hepatotoxicity (cytolytic) [14]: 20
- Hepatotoxicity (moderate) [15]: 13.3%
- Hepatotoxicity (comment) [16]: AC_ANTI-MFR/-TFA I/ALCOOL
- Hepatotoxicity (successful reintroduction) [17]: yes
- Hepatotoxicity (mechanism) [18]: Allergic, Reactive metabolite
- Hepatotoxicity (time to onset) [19]: < 1 day - 3 weeks

Structure (SMILES): NC(N)=Nc1nc(CSCCN/C=N/S(=O)(=O)c2ccc(Br)cc2)cs1 [EBROTIDINE]
- Hepatotoxicity (choleostasis) [1]: 0
- Hepatotoxicity (benign tumour) [2]: 0
- Hepatotoxicity (acute) [3]: 2
- Hepatotoxicity (cirrhosis) [4]: 1
- Hepatotoxicity (animal toxicity known) [5]: yes
- Hepatotoxicity (steatosis) [6]: 0
- Hepatotoxicity (moderate) [7]: 0
- Hepatotoxicity (association with vascular disease) [8]: 0
- Hepatotoxicity (granulomatous hepatitis) [9]: 0
- Hepatotoxicity (malignant tumour) [10]: 0
- Hepatotoxicity (severe hepatitis) [11]: 1
- Hepatotoxicity (chronic liver disease) [12]: 1
- Hepatotoxicity (acute) [13]: 0%
- Hepatotoxicity (cytolytic) [14]: 2
- Hepatotoxicity (moderate) [15]: 0%
- Hepatotoxicity (comment) [16]: AC_ANTI-ML
- Hepatotoxicity (successful reintroduction) [17]: yes
- Hepatotoxicity (time to onset) [19]: 2 weeks - 6 months

Structure (SMILES): O=C1CN(/N=C/c2ccc(-c3ccc([N+](=O)[O-])cc3)o2)C(O)=N1 [DANTROLENE]
- Hepatotoxicity (choleostasis) [1]: 6
- Hepatotoxicity (benign tumour) [2]: 0
- Hepatotoxicity (acute) [3]: 11
- Hepatotoxicity (cirrhosis) [4]: 0
- Hepatotoxicity (animal toxicity known) [5]: yes
- Hepatotoxicity (steatosis) [6]: 0
- Hepatotoxicity (moderate) [7]: 11
- Hepatotoxicity (association with vascular disease) [8]: 0
- Hepatotoxicity (granulomatous hepatitis) [9]: 0
- Hepatotoxicity (malignant tumour) [10]: 0
- Hepatotoxicity (severe hepatitis) [11]: 7
- Hepatotoxicity (chronic liver disease) [12]: 1
- Hepatotoxicity (acute) [13]: 0.6%
- Hepatotoxicity (cytolytic) [14]: 10
- Hepatotoxicity (moderate) [15]: 1.8%
- Hepatotoxicity (comment) [16]: CHOLANGITE
- Hepatotoxicity (successful reintroduction) [17]: yes
- Hepatotoxicity (time to onset) [19]: 7 days - 1 year

Structure (SMILES): O=C1CN(/N=C/c2ccc([N+](=O)[O-])o2)C(=O)N1 [NITROFURANTOIN]
- Hepatotoxicity (choleostasis) ([1]; Liver): 27
- Hepatotoxicity (benign tumour) [2]: 1
- Hepatotoxicity (cirrhosis) [4]: 7
- Hepatotoxicity (animal toxicity known) [5]: yes
- Hepatotoxicity (steatosis) [6]: 1
- Hepatotoxicity (moderate) [7]: 2
- Hepatotoxicity (association with vascular disease) [8]: 0
- Hepatotoxicity (granulomatous hepatitis) ([9]; Liver): 2
- Hepatotoxicity (malignant tumour) [10]: 1
- Hepatotoxicity (severe hepatitis) ([11]; Liver): 8
- Hepatotoxicity (chronic liver disease) [12]: 37
- Hepatotoxicity (acute) ([13]; Liver): 0%
- Hepatotoxicity (cytolytic) ([14]; Liver): 9
- Hepatotoxicity (moderate) ([15]; Liver): 0%
- Hepatotoxicity (comment) [16]: AC_ANTI-ML/-N RC/FURAZOLIDONE/NIFUROXIME CHOLANGITE
- Hepatotoxicity (successful reintroduction) [17]: yes
- Hepatotoxicity (mechanism) ([18]; Liver): Allergic
- Hepatotoxicity (time to onset) [19]: 2 days - 10 years

Structure (SMILES): CC(=O)Nc1ccc(O)cc1 [ACETAMINOPHEN]
- Hepatotoxicity (choleostasis) [1]: 5
- Hepatotoxicity (benign tumour) [2]: 0
- Hepatotoxicity (cirrhosis) [4]: 5
- Hepatotoxicity (animal toxicity known) [5]: yes
- Hepatotoxicity (steatosis) [6]: 1
- Hepatotoxicity (association with vascular disease) [8]: 0
- Hepatotoxicity (granulomatous hepatitis) [9]: 1
- Hepatotoxicity (malignant tumour) [10]: 0
- Hepatotoxicity (chronic liver disease) [12]: 7
- Hepatotoxicity (cytolytic) [14]: 98
- Hepatotoxicity (comment) [16]: I/ALCOOL/PHENYTOINE/PHENOBARBITAL/IFN/ZIDOVUDINE #CBP
- Hepatotoxicity (successful reintroduction) [17]: yes
- Hepatotoxicity (mechanism) [18]: Allergic, Toxic Metabolite
- Hepatotoxicity (time to onset) [19]: 1 day - 12 years

Structure (SMILES): CNC(=C[N+](=O)[O-])NCCSCc1ccc(CN(C)C)o1 [RANITIDINE]
- Hepatotoxicity (choleostasis) [1]: 15
- Hepatotoxicity (benign tumour) [2]: 0
- Hepatotoxicity (cirrhosis) [4]: 0
- Hepatotoxicity (animal toxicity known) [5]: yes
- Hepatotoxicity (steatosis) [6]: 1
- Hepatotoxicity (moderate) [7]: 37
- Hepatotoxicity (association with vascular disease) [8]: 0
- Hepatotoxicity (granulomatous hepatitis) [9]: 1
- Hepatotoxicity (malignant tumour) [10]: 0
- Hepatotoxicity (severe hepatitis) [11]: 2
- Hepatotoxicity (chronic liver disease) [12]: 1
- Hepatotoxicity (acute) [13]: 0%
- Hepatotoxicity (cytolytic) [14]: 12
- Hepatotoxicity (moderate) [15]: 18.6%
- Hepatotoxicity (comment) [16]: AC_ANTI-ML/-N CHOLANGITE
- Hepatotoxicity (successful reintroduction) [17]: yes
- Hepatotoxicity (mechanism) [18]: Allergic, Dose-dependant, Toxic Metabolite
- Hepatotoxicity (time to onset) [19]: 4 days - 3 months

Structure (SMILES): CN1CCN(C2=Nc3cc(Cl)ccc3Nc3ccccc32)CC1 [CLOZAPINE]
- Hepatotoxicity (choleostasis) [1]: 4
- Hepatotoxicity (benign tumour) [2]: 0
- Hepatotoxicity (cirrhosis) [4]: 0
- Hepatotoxicity (animal toxicity known) [5]: A
- Hepatotoxicity (steatosis) [6]: 0
- Hepatotoxicity (moderate) [7]: 26
- Hepatotoxicity (association with vascular disease) [8]: 0
- Hepatotoxicity (granulomatous hepatitis) [9]: 0
- Hepatotoxicity (malignant tumour) [10]: 0
- Hepatotoxicity (severe hepatitis) [11]: 1
- Hepatotoxicity (chronic liver disease) [12]: 0
- Hepatotoxicity (acute) [13]: 1%
- Hepatotoxicity (cytolytic) [14]: 8
- Hepatotoxicity (moderate) [15]: 60%
- Hepatotoxicity (comment) [16]: CHOLANGITE
- Hepatotoxicity (successful reintroduction) [17]: yes
- Hepatotoxicity (mechanism) [18]: Dose-dependant
- Hepatotoxicity (time to onset) [19]: 3 days - 6 weeks

Structure (SMILES): COc1cccc2c1C(=O)c1c(O)c3c(c(O)c1C2=O)C[C@@](O)(C(=O)CO)C[C@@H]3O[C@H]1C[C@H](N)[C@H](O)[C@H](C)O1 [DOXORUBICIN]
- Hepatotoxicity (choleostasis) [1]: 3
- Hepatotoxicity (benign tumour) [2]: 0
- Hepatotoxicity (acute) [3]: 7
- Hepatotoxicity (cirrhosis) [4]: 0
- Hepatotoxicity (animal toxicity known) [5]: yes
- Hepatotoxicity (steatosis) [6]: 0
- Hepatotoxicity (moderate) [7]: 8
- Hepatotoxicity (association with vascular disease) [8]: 5
- Hepatotoxicity (granulomatous hepatitis) [9]: 0
- Hepatotoxicity (malignant tumour) [10]: 1
- Hepatotoxicity (severe hepatitis) [11]: 4
- Hepatotoxicity (chronic liver disease) [12]: 0
- Hepatotoxicity (cytolytic) [14]: 4
- Hepatotoxicity (moderate) [15]: 84.6%
- Hepatotoxicity (comment) [16]: I/MERCAPTOPURINE/VINBLASTINE CHOLANGITE MVO REACTIVATION_HVB
- Hepatotoxicity (successful reintroduction) [17]: yes
- Hepatotoxicity (mechanism) [18]: Reactive metabolite, Dose-dependant
- Hepatotoxicity (time to onset) [19]: 1 week - 3 weeks

Structure (SMILES): CN(C)CCCN1c2ccccc2CCc2ccccc21 [IMIPRAMINE]
- Hepatotoxicity (choleostasis) [1]: 13
- Hepatotoxicity (benign tumour) [2]: 0
- Hepatotoxicity (cirrhosis) [4]: 0
- Hepatotoxicity (animal toxicity known) [5]: yes
- Hepatotoxicity (steatosis) [6]: 0
- Hepatotoxicity (association with vascular disease) [8]: 0
- Hepatotoxicity (granulomatous hepatitis) [9]: 0
- Hepatotoxicity (malignant tumour) [10]: 0
- Hepatotoxicity (chronic liver disease) [12]: 1
- Hepatotoxicity (cytolytic) [14]: 9
- Hepatotoxicity (comment) [16]: RC/DESPRAMINE CHOLESTASE_PROLONGEE
- Hepatotoxicity (successful reintroduction) [17]: yes
- Hepatotoxicity (mechanism) [18]: Allergic, Reactive metabolite
- Hepatotoxicity (time to onset) [19]: 1 week - 1 year

Structure (SMILES): CN(N=O)C(=O)N[C@@H](C=O)[C@@H](O)[C@H](O)[C@H](O)CO [STREPTOZOCIN]
- Hepatotoxicity (choleostasis) [1]: 0
- Hepatotoxicity (benign tumour) [2]: 0
- Hepatotoxicity (acute) [3]: 3
- Hepatotoxicity (cirrhosis) [4]: 0
- Hepatotoxicity (animal toxicity known) [5]: yes
- Hepatotoxicity (steatosis) [6]: 0
- Hepatotoxicity (moderate) [7]: 9
- Hepatotoxicity (association with vascular disease) [8]: 0
- Hepatotoxicity (granulomatous hepatitis) [9]: 0
- Hepatotoxicity (malignant tumour) [10]: 0
- Hepatotoxicity (severe hepatitis) [11]: 2
- Hepatotoxicity (chronic liver disease) [12]: 0
- Hepatotoxicity (acute) [13]: 35.3%
- Hepatotoxicity (cytolytic) [14]: 1
- Hepatotoxicity (moderate) [15]: 67%
- Hepatotoxicity (comment) [16]: CHOLANGITE/IAH
- Hepatotoxicity (successful reintroduction) [17]: yes
- Hepatotoxicity (time to onset) [19]: 4 days - 6 weeks
